# Results taken from a melting point compilation (Tetko et al.; mined from patent text by program, amines drawn as free bases though some values may be those of a salt).
row,SMILES,melting point
1,Cn1c(S(=O)(=O)C(F)(F)C(F)F)nc(-c2ccc(F)cc2)c1-c1ccc(F)cc1,122 to 124 °C
2,COc1ccc(COC(=O)[C@H]2CC[C@H](C(=O)O)CC2)cc1,87 to 89 °C
3,CC(=O)OCc1nc(C(CN(C(C)=O)C(C)(C)C)OC(C)=O)ccc1OC(C)=O (centres undefined),60 to 64 °C
4,CCOCc1nc2c(N)nc(C)c(C)c2n1CC1(O)CCCCC1,194 to 195 °C
5,COc1ccc(-c2ccc(C(=O)Nc3ccc4cc(CN5CCCC5)cnc4c3F)c(F)c2)cc1,182 to 183 °C
6,CCCCCCCCCCCCCCOc1ccc(CN(C(C)=O)c2cccc(CBr)c2)cc1,56 to 58 °C
7,O=C(O)C1(N(Cc2noc(=O)[nH]2)S(=O)(=O)c2ccc(-c3ccc(Cl)cc3)cc2)CC1c1ccccc1 (centres undefined),168 to 172 °C
8,CCCCCCCCN=C=O,60 to 62 °C
9,COCn1c(-c2nccs2)cc2cccc(NS(=O)(=O)c3cccs3)c21,95 to 97 °C
10,CC(C(=O)N1c2ccccc2C(=O)N(C)c2cccnc21)N1CCN(C)CC1 (centres undefined),206 to 208 °C
11,COc1cccc(F)c1CCl,87 to 89 °C
12,NC(=O)N1C(=O)C(C(=O)c2ccccc2)c2nc(Cl)ccc21 (centres undefined),220 °C
13,COc1ccc(C)cc1NC(=O)Nc1ccc(N2CCN(C(=O)Nc3ccc(OCC(O)CO)cc3C)CC2)cc1 (centres undefined),148 to 150 °C
14,CN1Cn2cc(CO)cc2-c2ccccc21,74 to 76 °C
15,CC(=O)NC(=O)CSCc1ccccc1,86 to 87 °C
16,CCc1c(C(=O)C(N)=O)c2c(OCC(=O)NOCc3ccccc3)cccc2n1Cc1ccccc1,167 to 169 °C
17,Cc1noc(-c2sc(N3CCN(Cc4ccc(C(F)(F)F)cc4)C3=O)nc2C)n1,163 to 164 °C
18,CNC(=S)NS(=O)(=O)c1cc2c(cc1OC)OCC(NC(=O)c1cc(F)ccc1OC)C2 (centres undefined),221 to 222 °C
19,Cc1nccc2[nH]c(=O)ccc12,235 to 237 °C
20,CCON=Cc1cc(-n2c(=O)cc(C(F)(F)F)[nH]c2=O)c(Cl)cc1Cl,205 to 209 °C
21,O=C(O)c1cccc(OCCCCCCc2cccc(O)c2O)c1,123 to 125 °C
22,CCS(=O)(=O)N1CCNC1=O,114 to 116 °C
23,O=Cc1c(Cl)cc(OCc2ccccc2)cc1OCc1ccccc1,85 to 86 °C
24,COc1ccc(C(C)(C)C)cc1S(N)(=O)=O,156 to 158 °C
25,O=C1NC2=C(C=CCC2)S(=O)(=O)c2cc(C(F)(F)F)ccc21,240 to 241 °C

row,SMILES,melting point
1,Nc1cc(F)ccc1[N+](=O)[O-],99 °C
2,O=C1c2ccccc2COc2ccc(CC=NO)cc21,132 to 134 °C
3,CCOC(=O)N1CCC(N=c2oc3ncnc(N)c3n2Cc2ccc(F)cc2)CC1,175 °C
4,CC(O)/C=C/c1ncn2c1CN(C)C(=O)c1c(Cl)cccc1-2 (centres undefined),232 to 233 °C
5,CCC(CO)(OC)c1ccc(-c2ccc(OC)cc2)cc1 (centres undefined),108 to 109 °C
6,Cn1cc(C(=O)O)c(=O)c2c3ccc(F)c(N4CCN(c5cccc(C(F)(F)F)c5)CC4)c3ncc21,261 °C
7,C#CC(C)Oc1cc(Cc2cnc(N)nc2N)cc(OC)c1OC (centres undefined),153 to 155 °C
8,CCCCCCCCCCCCCCCCCCNC(=O)NCCCN,116 to 140 °C
9,O=C(CCl)Nc1cccc2[nH]ccc12,114 to 116 °C
10,CN(C)C(=O)CCc1c2n(c(=O)c3ccccc13)CCc1ccccc1-2,192 to 194 °C
11,CC(CCCc1ccccc1)n1nnc2c(=O)[nH]c(Cc3ccccc3)nc21 (centres undefined),112 °C
12,C[C@@H]1Cc2ccsc2[C@H](C)N1CCNC(=O)c1ccc(NS(=O)(=O)c2ccc(Cl)cc2)cc1 (relative stereo),107 to 111 °C
13,CC(C)C(NC(=O)Cn1c(-c2ccc(F)cc2)ncc(N)c1=O)C(=O)C(F)(F)F (centres undefined),200 to 203 °C
14,Cn1cncc1C(O)(c1ccc(Cl)cc1)c1ccc2c(c1)c(CCc1ccc(Cl)s1)cc(=O)n2C (centres undefined),128 °C
15,CN(C)c1cc(N2C(=O)N3CCCC3(Cc3ccc(Br)cc3)C2=O)cc(Cl)n1 (centres undefined),194 °C
16,CC(C)(C)C(O)(C=Cc1ccc(Cl)cc1)n1cncn1 (centres undefined),139 to 141 °C
17,C=C(C)COc1cc(C)c(NC(=O)CC(C)(C)C)c(C)c1Cc1ccc(C(C)C)cc1,129 to 130 °C
18,CCCCCN(C[C@H]1CCC[C@H](CN(CCCCC)C(=O)Nc2ccc(N(C)C)cc2)C1)C(=O)Nc1ccc(N(C)C)cc1 (relative stereo),124 to 127 °C
19,O=C(O)CC1CC(c2ccccc2)c2ccccc21 (centres undefined),126 to 129 °C
20,O=C(NC(Cc1ccc(OCc2ccc(F)cc2)cc1)C(=O)O)c1cc2ccc(-c3ccc(Cl)cc3)cc2o1 (centres undefined),166 to 168 °C
21,Cc1c(NC(=O)CC(C)(C)C)c(C)c2c(c1-c1cccc([N+](=O)[O-])c1)OCC2c1ccc(C(C)C)cc1 (centres undefined),209 to 210 °C
22,COc1ccc2c(c1)CC(=O)c1cc(C(C)C(=O)O)ccc1S2 (centres undefined),152 to 153 °C
23,CC1=N/C(=C\c2c[nH]c3cc(C)ccc23)C(=O)O1,194 to 196 °C
24,CCOC(=O)Cc1csc(-c2ccccc2O)n1,35.5 to 36.5 °C
